Laboratory results published in PubChem BioAssay AID1918953 (Molecular Pharmacology Branch, DTP, NCI, 2023).
Several values for one entry are separate records, joined by “and”; a condition that tells them apart may be missing. Equal entries are not always repeated.

Test system: MDA-MB-231 complex spheroid viability
Assay: Anticancer human tumor MDA-MB-231/ATCC cell line growth inhibition;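 also: drug exposure lasted 7 days starting on day 3 of spheroid growth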
Conditions: for viability, T/C: stronger effect = lower value
Summary of the method: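 Drug combinations with the LSD1 inhibitor iadademstat tested on tumor cells co-cultured as spheroids with endothelial cells and mesenchymal stem cells. Concentrations descended in half-log increments from clinical Cmax or 10 microM.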

Q: `CC[C@@]1(O)C(=O)OCc2c1cc1n(c2=O)Cc2cc3c(CN(C)C)c(O)ccc3nc2-1` + NC1CCC(NC2CC2c2ccccc2)CC1 was tested. Which IC50 (curve of first compound, second compound 0.1 µM) did it give?
A: 2.37 nM

Q: What about the IC50 (curve of first compound, second compound 0.316 µM) of the same compound?
A: 2.18 nM

Q: And the IC50 (curve of first compound, second compound 1 µM)?
A: 2.28 nM

Q: And the IC50 (curve of first compound, second compound 3.16 µM)?
A: 1.46 nM

Q: What about the IC50 (curve of first compound, second compound 10 µM) of the same compound?
A: 0.603 nM

Q: And the viability, T/C (second compound 0.1 µM, first compound 0.000316 µM)?
A: 91.6%

Q: What about the viability, T/C (second compound 0.1 µM, first compound 0.001 µM) of the same compound?
A: 70.6%

Q: And the viability, T/C (second compound 0.1 µM, first compound 0.00316 µM)?
A: 40.3%

Q: And the viability, T/C (second compound 0.1 µM, first compound 0.01 µM)?
A: 29.1%

Q: What about the viability, T/C (second compound 0.1 µM, first compound 0.0316 µM) of the same compound?
A: 22.5%

Q: What about the viability, T/C (second compound 0.1 µM, first compound 0.1 µM) of the same compound?
A: 13%

Q: And the viability, T/C (second compound 0.316 µM, first compound 0.000316 µM)?
A: 87.6%

Q: And the viability, T/C (second compound 0.316 µM, first compound 0.001 µM)?
A: 66.3%

Q: And the viability, T/C (second compound 0.316 µM, first compound 0.00316 µM)?
A: 40%

Q: And the viability, T/C (second compound 0.316 µM, first compound 0.01 µM)?
A: 28.9%

Q: What about the viability, T/C (second compound 0.316 µM, first compound 0.0316 µM) of the same compound?
A: 22.2%

Q: What about the viability, T/C (second compound 0.316 µM, first compound 0.1 µM) of the same compound?
A: 12.4%

Q: And the viability, T/C (second compound 1 µM, first compound 0.000316 µM)?
A: 87.3%

Q: And the viability, T/C (second compound 1 µM, first compound 0.001 µM)?
A: 69.6%

Q: And the viability, T/C (second compound 1 µM, first compound 0.00316 µM)?
A: 38.9%

Q: What about the viability, T/C (second compound 1 µM, first compound 0.01 µM) of the same compound?
A: 29.7%

Q: And the viability, T/C (second compound 1 µM, first compound 0.0316 µM)?
A: 22.4%

Q: What about the viability, T/C (second compound 1 µM, first compound 0.1 µM) of the same compound?
A: 13.2%

Q: And the viability, T/C (second compound 3.16 µM, first compound 0.000316 µM)?
A: 74.4%

Q: And the viability, T/C (second compound 3.16 µM, first compound 0.001 µM)?
A: 56.8%

Q: And the viability, T/C (second compound 3.16 µM, first compound 0.00316 µM)?
A: 36.5%

Q: And the viability, T/C (second compound 3.16 µM, first compound 0.01 µM)?
A: 28.9%

Q: And the viability, T/C (second compound 3.16 µM, first compound 0.0316 µM)?
A: 19.9%

Q: And the viability, T/C (second compound 3.16 µM, first compound 0.1 µM)?
A: 13.2%

Q: What about the viability, T/C (second compound 10 µM, first compound 0.000316 µM) of the same compound?
A: 57.8%

Q: And the viability, T/C (second compound 10 µM, first compound 0.001 µM)?
A: 44.2%

Q: What about the viability, T/C (second compound 10 µM, first compound 0.00316 µM) of the same compound?
A: 31.3%

Q: And the viability, T/C (second compound 10 µM, first compound 0.01 µM)?
A: 23.2%

Q: What about the viability, T/C (second compound 10 µM, first compound 0.0316 µM) of the same compound?
A: 16%

Q: What about the viability, T/C (second compound 10 µM, first compound 0.1 µM) of the same compound?
A: 12.2%

Q: How did the viability, T/C (compound 0.000316 µM) turn out when `CC[C@@]1(O)C(=O)OCc2c1cc1n(c2=O)Cc2cc3c(CN(C)C)c(O)ccc3nc2-1` was run?
A: 89.7% and 88.6%

Q: What about the viability, T/C (compound 0.001 µM) of the same compound?
A: 64.9% and 65.5%

Q: And the viability, T/C (compound 0.00316 µM)?
A: 39.1% and 39.5%

Q: What about the viability, T/C (compound 0.01 µM) of the same compound?
A: 25.3% and 25.9%

Q: What about the viability, T/C (compound 0.0316 µM) of the same compound?
A: 17.1% and 22.8%

Q: What about the viability, T/C (compound 0.1 µM) of the same compound?
A: 10.3% and 16%

Q: What about the IC50 (curve of compound) of the same compound?
A: 1.99 nM and 2.01 nM
